Measured values: article PMC6203334 (Medicinal chemistry research : an international journal for …, 2018)

Columns and labels:
Type in all cases: cell-based
[1] = system: Leishmania donovani promastigotes; assay: In vitro antileishmanial assay, promastigotes; conditions: for IC50: read-out: L. donovani promastigotes IC50; for IC90: read-out: L. donovani promastigotes IC90
[2] = system: Leishmania donovani axenic amastigotes; assay: In vitro antileishmanial assay, axenic amastigotes; conditions: for IC50: read-out: L. donovani Axenic amastigotes IC50; for IC90: read-out: L. donovani Axenic amastigotes IC90
[3] = system: Plasmodium falciparum chloroquine sensitive (D6, Sierra Leone); assay: In vitro antimalarial assay; conditions: D6, read-out: P. falciparum IC50 (D6)
[4] = system: Plasmodium falciparum chloroquine resistant (W2, Indo China); assay: In vitro antimalarial assay; conditions: W2, read-out: P. falciparum IC50 (W2)
[5] = system: Blood stage forms of Trypanosoma brucei brucei; assay: In vitro antitrypanosomal assay; conditions: NA: not active

Row | IC50 [1] [nM] | IC90 [1] [nM] | IC50 [2] [nM] | IC90 [2] [nM] | IC50 ([5]; read-out: Trypanosoma brucei IC50) [nM] | IC90 ([5]; read-out: Trypanosoma brucei IC90) [nM] | SMILES | IC50 [3] [nM] | IC50 [4] [nM] | T. brucei IC9 ([5]; Table 3) [µM]
1 | 192 | 312 | 1730 | 2000 | – | – | C[C@@H]1[C@H](O)[C@@H](C)/C=C/C=C/C=C/C=C/C=C/C=C/C=C/[C@H](O[C@@H]2O[C@H](C)[C@@H](O)[C@H](N)[C@@H]2O)C[C@@H]2O[C@](O)(C[C@@H](O)C[C@@H](O)[C@H](O)CC[C@@H](O)C[C@@H](O)CC(=O)O[C@H]1C)C[C@H](O)[C@H]2C(=O)O [Amp B, Amphotericin B] | – | – | –
2 | – | – | – | – | – | – | CCN(CC)CCCC(C)Nc1ccnc2cc(Cl)ccc12 (stereo not shown) [CQ, chloroquine] | 52 | 460 | –
3 | – | – | – | – | 21300 ± 2010 | 59200 ± 5750 | NCCCC(N)(C(=O)O)C(F)F (stereo not shown) [DFMO, difluoromethylornithine] | – | – | 59.175 ± 5.748
4 | 2040 | 3670 | 15300 | 16900 | – | – | N=C(N)c1ccc(OCCCCCOc2ccc(C(=N)N)cc2)cc1 [Pent, pentamidine] | – | – | –
